Assays:
[1] = target: HLA-E*01:03 (Homo sapiens, UniProt P13747); format: binding; details: S/P relative to positive control […] or […], tested at least two times, median, Figure 1
[2] = target: NKG2A/CD94 (Homo sapiens, UniProt P26715+Q13241); format: binding
Sequence of NKG2A/CD94 (P26715 whole entry): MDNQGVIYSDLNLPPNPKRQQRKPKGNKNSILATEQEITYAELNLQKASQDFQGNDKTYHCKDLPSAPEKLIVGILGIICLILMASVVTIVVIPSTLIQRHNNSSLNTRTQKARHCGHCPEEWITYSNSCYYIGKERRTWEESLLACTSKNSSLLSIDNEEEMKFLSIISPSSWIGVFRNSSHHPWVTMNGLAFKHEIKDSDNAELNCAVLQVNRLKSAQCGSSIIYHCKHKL
Sequence of NKG2A/CD94 (Q13241 whole entry): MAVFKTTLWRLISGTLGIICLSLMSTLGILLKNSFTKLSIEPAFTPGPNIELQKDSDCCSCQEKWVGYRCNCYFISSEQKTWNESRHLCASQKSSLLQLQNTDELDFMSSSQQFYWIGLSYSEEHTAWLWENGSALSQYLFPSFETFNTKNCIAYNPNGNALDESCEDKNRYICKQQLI

| Sequence | Peptide binding affinity for HLA-E*01:03 (signal to positive, S/P, ratio), in words [1] | Interaction of thermal exchanged HLA-E TM/peptide complex with NKG2A/CD94, in words [2] |
| --- | --- | --- |
| VMAPRTLVL [Mtb55-VL9-hybrid] | increased the affinity | could interact |
| VMTPRTLTL [Mtb34-VL9-hybrid] | increased the affinity | – |

Reference: article PMC12041767 (Journal of immunology (Baltimore, Md. : 1950), 2025)
